In ChEMBL document CHEMBL2146451, “Antidiabetic activity of some pentacyclic acid triterpenoids, role of PTP-1B: in vitro, in silico, and in vivo approaches” (Eur J Med Chem, 2011):

Experiments:
[1] = test system: Rattus norvegicus; experiment: Antidiabetic activity in STZ-nicotinamide diabetic Wistar rat T2DM model assessed as decrease in blood glucose level at 5 mg/kg, po after 7 hrs by enzymatic glucose oxidase method relative to control; type: functional; set-up: scale not given: the % may be the effect or the level left
[2] = test system: Rattus norvegicus; experiment: Antidiabetic activity in STZ-nicotinamide diabetic Wistar rat T2DM model assessed as decrease in blood glucose level at 5 mg/kg, po after 3 hrs by enzymatic glucose oxidase method relative to control; type: functional; set-up: scale not given: the % may be the effect or the level left
[3] = test system: Rattus norvegicus; experiment: Antidiabetic activity in STZ-nicotinamide diabetic Wistar rat T2DM model assessed as decrease in blood glucose level at 5 mg/kg, po after 1 hr by enzymatic glucose oxidase method relative to control; type: functional; set-up: scale not given: the % may be the effect or the level left
[4] = test system: Rattus norvegicus; experiment: Antidiabetic activity in STZ-nicotinamide diabetic Wistar rat T2DM model assessed as decrease in blood glucose level at 5 mg/kg, po after 5 hrs by enzymatic glucose oxidase method relative to control; type: functional; set-up: scale not given: the % may be the effect or the level left
[5] = test system: Rattus norvegicus; experiment: Antidiabetic activity in STZ-nicotinamide diabetic Wistar rat T2DM model assessed as decrease in blood glucose level at 50 mg/kg, po after 1 hr by enzymatic glucose oxidase method relative to control; type: functional; set-up: scale not given: the % may be the effect or the level left
[6] = target: T1, Low molecular weight phosphotyrosine protein phosphatase (Homo sapiens, UniProt P24666); experiment: Inhibition of human recombinant LMW-PTP2 expressed in Escherichia coli TB1 using p-nitrophenyl phosphate as substrate after 1 hr
T1 sequence (P24666 whole entry): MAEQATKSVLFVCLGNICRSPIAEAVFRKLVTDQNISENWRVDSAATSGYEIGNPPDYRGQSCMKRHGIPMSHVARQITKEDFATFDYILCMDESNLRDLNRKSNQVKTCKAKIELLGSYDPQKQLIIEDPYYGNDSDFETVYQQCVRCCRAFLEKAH

[7] = test system: Rattus norvegicus; experiment: Antidiabetic activity in STZ-nicotinamide diabetic Wistar rat T2DM model assessed as decrease in blood glucose level at 50 mg/kg, po after 5 hrs by enzymatic glucose oxidase method relative to control; type: functional; set-up: scale not given: the % may be the effect or the level left
[8] = target: T1, Low molecular weight phosphotyrosine protein phosphatase; experiment: Inhibition of human recombinant LMW-PTP1 expressed in Escherichia coli TB1 using p-nitrophenyl phosphate as substrate after 1 hr
[9] = target: Receptor-type tyrosine-protein phosphatase F (Homo sapiens, UniProt P10586); experiment: Inhibition of human recombinant LAR expressed in Escherichia coli TB1 using p-nitrophenyl phosphate as substrate after 1 hr
Receptor-type tyrosine-protein phosphatase F, sequence (P10586 whole entry): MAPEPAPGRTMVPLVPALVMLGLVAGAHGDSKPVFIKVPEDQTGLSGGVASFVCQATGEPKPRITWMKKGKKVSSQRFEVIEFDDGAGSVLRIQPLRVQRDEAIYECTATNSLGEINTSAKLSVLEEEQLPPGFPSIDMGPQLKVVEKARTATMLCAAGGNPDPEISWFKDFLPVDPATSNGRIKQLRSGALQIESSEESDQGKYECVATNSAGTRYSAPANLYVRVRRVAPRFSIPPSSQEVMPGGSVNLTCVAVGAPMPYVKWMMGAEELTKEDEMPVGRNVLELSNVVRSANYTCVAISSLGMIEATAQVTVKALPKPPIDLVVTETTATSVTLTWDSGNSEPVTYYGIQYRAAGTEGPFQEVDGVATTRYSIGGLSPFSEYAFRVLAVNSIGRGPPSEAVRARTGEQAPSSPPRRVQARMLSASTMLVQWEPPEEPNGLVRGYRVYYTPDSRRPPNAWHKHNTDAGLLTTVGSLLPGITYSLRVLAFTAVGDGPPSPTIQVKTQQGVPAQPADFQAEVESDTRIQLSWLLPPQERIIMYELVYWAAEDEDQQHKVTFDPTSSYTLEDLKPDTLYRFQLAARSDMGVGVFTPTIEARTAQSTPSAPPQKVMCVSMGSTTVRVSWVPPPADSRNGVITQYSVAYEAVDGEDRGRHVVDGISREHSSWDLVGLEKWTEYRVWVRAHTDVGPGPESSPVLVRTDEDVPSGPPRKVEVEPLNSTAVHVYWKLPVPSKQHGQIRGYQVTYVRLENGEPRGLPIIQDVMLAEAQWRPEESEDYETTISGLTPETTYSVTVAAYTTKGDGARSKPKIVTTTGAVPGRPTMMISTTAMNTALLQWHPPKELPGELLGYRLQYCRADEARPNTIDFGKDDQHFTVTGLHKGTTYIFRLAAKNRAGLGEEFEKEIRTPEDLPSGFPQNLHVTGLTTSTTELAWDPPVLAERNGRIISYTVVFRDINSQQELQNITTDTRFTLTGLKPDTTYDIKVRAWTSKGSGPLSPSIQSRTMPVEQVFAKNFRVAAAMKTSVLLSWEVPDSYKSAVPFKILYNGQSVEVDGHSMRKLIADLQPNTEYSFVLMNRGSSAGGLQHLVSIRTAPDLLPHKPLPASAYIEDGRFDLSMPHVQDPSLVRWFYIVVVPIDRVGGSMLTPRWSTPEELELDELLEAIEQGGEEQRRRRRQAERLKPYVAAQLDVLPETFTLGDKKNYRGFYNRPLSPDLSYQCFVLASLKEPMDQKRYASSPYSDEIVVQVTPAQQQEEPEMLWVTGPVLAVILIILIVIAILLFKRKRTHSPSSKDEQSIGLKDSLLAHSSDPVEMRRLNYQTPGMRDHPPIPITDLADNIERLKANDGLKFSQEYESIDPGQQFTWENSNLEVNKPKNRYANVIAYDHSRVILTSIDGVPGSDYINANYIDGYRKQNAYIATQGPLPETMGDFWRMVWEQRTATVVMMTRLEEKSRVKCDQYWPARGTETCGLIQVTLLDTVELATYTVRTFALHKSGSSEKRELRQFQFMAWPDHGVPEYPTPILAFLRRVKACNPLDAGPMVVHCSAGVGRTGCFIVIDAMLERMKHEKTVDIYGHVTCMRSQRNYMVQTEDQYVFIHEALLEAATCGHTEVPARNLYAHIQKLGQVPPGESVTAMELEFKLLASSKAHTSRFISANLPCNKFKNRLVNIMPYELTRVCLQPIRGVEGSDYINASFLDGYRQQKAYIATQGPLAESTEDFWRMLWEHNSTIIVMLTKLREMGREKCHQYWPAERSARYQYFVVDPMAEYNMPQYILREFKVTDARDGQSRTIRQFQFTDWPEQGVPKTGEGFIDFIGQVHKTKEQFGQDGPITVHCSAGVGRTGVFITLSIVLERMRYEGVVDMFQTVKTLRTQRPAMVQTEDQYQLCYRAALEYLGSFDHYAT

[10] = test system: Rattus norvegicus; experiment: Antidiabetic activity in STZ-nicotinamide diabetic Wistar rat T2DM model assessed as decrease in blood glucose level at 50 mg/kg, po after 3 hrs by enzymatic glucose oxidase method relative to control; type: functional; set-up: scale not given: the % may be the effect or the level left
[11] = test system: Rattus norvegicus; experiment: Antidiabetic activity in STZ-nicotinamide diabetic Wistar rat T2DM model assessed as decrease in blood glucose level at 50 mg/kg, po after 7 hrs by enzymatic glucose oxidase method relative to control; type: functional; set-up: scale not given: the % may be the effect or the level left
[12] = target: T2, Tyrosine-protein phosphatase non-receptor type 1 (Homo sapiens, UniProt P18031)
T2 sequence (P18031 whole entry): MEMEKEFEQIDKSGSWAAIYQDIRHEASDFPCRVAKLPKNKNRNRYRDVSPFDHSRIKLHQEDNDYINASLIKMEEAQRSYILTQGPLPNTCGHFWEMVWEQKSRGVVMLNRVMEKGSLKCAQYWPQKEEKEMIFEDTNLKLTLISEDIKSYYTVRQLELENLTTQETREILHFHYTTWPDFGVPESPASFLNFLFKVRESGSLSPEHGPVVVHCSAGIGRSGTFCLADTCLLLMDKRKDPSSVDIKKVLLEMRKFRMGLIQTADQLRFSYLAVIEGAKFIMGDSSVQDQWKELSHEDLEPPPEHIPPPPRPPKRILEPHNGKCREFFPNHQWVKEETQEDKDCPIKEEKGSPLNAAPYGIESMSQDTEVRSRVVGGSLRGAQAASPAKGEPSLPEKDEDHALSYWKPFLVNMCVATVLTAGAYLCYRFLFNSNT
Description: Inhibition of human recombinant PTP-1B expressed in Escherichia coli TB1 using p-nitrophenyl phosphate as substrate after 1 hr

[13] = target: T2, Tyrosine-protein phosphatase non-receptor type 1; experiment: Mixed type inhibition of human recombinant PTP-1B expressed in Escherichia coli TB1 using p-nitrophenyl phosphate as substrate
[14] = Inhibition of yeast LMW-PTP1 expressed in Escherichia coli TB1 using p-nitrophenyl phosphate as substrate after 1 hr; set-up: species or system Saccharomyces cerevisiae
[15] = species on record: Mus musculus; experiment: Antidiabetic activity in normal Swiss mouse assessed as reduction of blood glucose level by glucose tolerance test relative to control; type: functional; set-up: scale not given: the % may be the effect or the level left

IC50 [6] [µM]	IC50 [8] [µM]	IC50 [9] [µM]	IC50 [12] [µM]	Ki [13] [µM]	IC50 [14] [µM]	Compound	Activity [1] [%]	Activity [2] [%]	Activity [3] [%]	Activity [4] [%]	Activity [5] [%]	Activity [7] [%]	Activity [10] [%]	Activity [11] [%]	Activity [15] [%]
–	–	–	–	–	–	COc1ccc(Cl)cc1C(=O)NCCc1ccc(S(=O)(=O)NC(=O)NC2CCCCC2)cc1 [GLYBURIDE]	43.6	36.3	20.4	37.5	–	–	–	–	–
27.4	20.6	45.6	13.2	8	51.2	CC1(C)C=C2[C@H]3CC[C@@H]4[C@@]5(C)CCC(=O)C(C)(C)[C@@H]5CC[C@@]4(C)[C@]3(C)CC[C@@]2(C(=O)O)CC1 [MORONIC ACID]	–	–	–	–	17.3	15.3	26.3	29.2	–
22.9	21.2	11.8	–	–	44.8	CC1(C)CC[C@]2(C(=O)O)CC[C@]3(C)C(=CC[C@@H]4[C@@]5(C)CC[C@H](O)C(C)(C)[C@@H]5CC[C@]43C)[C@@H]2C1 [OLEANOLIC_ACID]	–	–	–	–	26.9	23.2	14.1	21.9	22
11.1	7.2	3.8	–	–	20	C[C@H]1[C@H](C)CC[C@]2(C(=O)O)CC[C@]3(C)C(=CC[C@@H]4[C@@]5(C)CC[C@H](O)C(C)(C)[C@@H]5CC[C@]43C)[C@H]12 [URSOLIC ACID]	–	–	–	–	13.5	25.7	24.4	38	–

Compound	IC50 [6] [µM]	IC50 [8] [µM]	IC50 [9] [µM]	IC50 [12] [µM]	Ki [13] [µM]	IC50 [14] [µM]	Activity [1] [%]	Activity [2] [%]	Activity [3] [%]	Activity [4] [%]	Activity [5] [%]	Activity [7] [%]	Activity [10] [%]	Activity [11] [%]	Activity [15] [%]
CC1(C)C=C2[C@H]3CC[C@@H]4[C@@]5(C)CC[C@H](O)C(C)(C)[C@@H]5CC[C@@]4(C)[C@]3(C)CC[C@@]2(C(=O)O)CC1 [MOROLIC ACID]	30.6	13.4	35.9	–	–	–	–	–	–	–	1.54	8.77	15.2	39.2	–
